Results as given in US20240384268A1, “Oligonucleotides” (Hudson Institute of Medical Research, priority 2021, published 2024).
In the oligonucleotide strings, read from the 5' end, every base follows the letter of its sugar. An asterisk marks phosphorothioate; unmarked linkages are phosphodiester. Other units and linkages are bracketed, terminal groups are in braces. A string of capitals states the bases alone. e = 2'-O-(2-methoxyethyl) (MOE); d = 2'-deoxy (DNA); m = 2'-O-methyl

Experiments:
[1] = biological target: T1, human TLR9 (Homo sapiens, UniProt Q9NR96); assay: HEK-TLR9 NF-κB-luciferase reporter, ODN2006 stimulation; assay type: cell-based; details: HEK-TLR9; 500 nM 2′OMe or PS oligos; 200 nM ODN2006
T1 construct: HA; host or cells: 293XL-hTLR9-HA (HEK293)
T1 sequence (Q9NR96 26-1032): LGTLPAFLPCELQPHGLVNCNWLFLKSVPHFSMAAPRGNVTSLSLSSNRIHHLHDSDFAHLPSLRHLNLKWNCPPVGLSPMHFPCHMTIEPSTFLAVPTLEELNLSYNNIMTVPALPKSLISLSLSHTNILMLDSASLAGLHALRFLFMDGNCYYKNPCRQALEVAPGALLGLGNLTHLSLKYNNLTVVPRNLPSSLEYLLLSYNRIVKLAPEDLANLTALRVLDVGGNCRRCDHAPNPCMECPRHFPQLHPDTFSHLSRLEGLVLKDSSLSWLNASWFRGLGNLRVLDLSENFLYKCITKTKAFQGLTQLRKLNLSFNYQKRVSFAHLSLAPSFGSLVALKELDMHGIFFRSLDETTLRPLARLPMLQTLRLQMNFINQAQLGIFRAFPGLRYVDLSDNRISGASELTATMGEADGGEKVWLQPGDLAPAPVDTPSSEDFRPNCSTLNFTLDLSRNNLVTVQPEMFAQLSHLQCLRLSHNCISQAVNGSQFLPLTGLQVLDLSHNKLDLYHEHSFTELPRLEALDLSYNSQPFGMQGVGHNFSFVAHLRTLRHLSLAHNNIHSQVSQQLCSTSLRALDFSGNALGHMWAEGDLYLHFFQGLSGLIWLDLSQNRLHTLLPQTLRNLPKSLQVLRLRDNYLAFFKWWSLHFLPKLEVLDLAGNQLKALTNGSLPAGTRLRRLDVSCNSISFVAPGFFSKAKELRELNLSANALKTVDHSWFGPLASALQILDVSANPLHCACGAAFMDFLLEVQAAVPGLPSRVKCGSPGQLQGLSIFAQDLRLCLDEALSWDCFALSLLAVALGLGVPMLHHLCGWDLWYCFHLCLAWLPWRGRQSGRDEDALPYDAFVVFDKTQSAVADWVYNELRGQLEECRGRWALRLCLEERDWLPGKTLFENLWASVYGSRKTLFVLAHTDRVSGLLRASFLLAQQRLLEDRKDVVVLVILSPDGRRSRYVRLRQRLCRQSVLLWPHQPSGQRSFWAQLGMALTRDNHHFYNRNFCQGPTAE
Method: In such examples, inhibition of TLR9 activity can be identified by observation of an overall decreased TLR9 response of the cell population, or a lower proportion of cells having TLR9-positive activity as compared to positive control condition in which cells are treated with TLR9 agonist in the absence of the oligonucleotide (or in the presence of an appropriate control inhibitory agent). In one example, HEK cells are transfected with TLR9 and a NF-κB reporter and incubated with an oligonucleotide and then stimulated with a TLR9 agonist. TLR9 activity can then be determined by a luciferase assay. TLR9 activity can also be analysed by measuring cytokine levels (e.g., IFN, IL-6, TNF and IL-12), for example by ELISA.
(§1) For cGAS stimulations, cells were treated for indicated duration with ASOs, prior to transfection with ISD70 (human cells) or ISD45 (mouse cells) (the ASOs were not washed off prior to ISD transfection unless otherwise indicated). The cGAS ligands ISD45 (Stetson and Medzhitov, 2006) and ISD70 (also known as VACV-70 (Unterholzner et al., 2010)) (Table 1) were resuspended as follows: 5 1d of sense and 5 μl of antisense strands at 10 μg/μl were added to 90 μl PBS under sterile conditions, heated at 75° C. for 30 min, prior to letting cool down at room temperature and aliquoting (stock at 1 μg/1 l). The ISDs were transfected at a concentration of […] at a ratio of 1 μg:1 μl with Lipofectamine 2000 in Opti-MEM (Thermo Fisher Scientific). HEK-TLR3, HEK-TLR7 and […] were treated with indicated concentration of ASOs for 20-50 min, prior to stimulation with poly(I:C) (Invivogen), R848 (Invivogen), Motolimod (MedChemExpress) and the Class B CpG oligonucleotides ODN 2006 (synthesised by IDT and resuspended in RNase-free TE buffer [Table 1]), respectively. The TLR2/1 agonist PAM3CSK4 (Invivogen), the TLR4 agonist lipopolysaccharide (Invivogen), the Class B CpG oligonucleotides ODN 1826 (synthesised by IDT and resuspended in RNase-free TE buffer), the mouse Sting agonist DMXAA (Cayman) and the human STING agonist (compound #3 from (Raanjulu et al., 2018), referred to as GSK herein—kind gift from Cancer Therapeutics CRC, Australia) were used at indicated concentrations. Aspirin (Sigma—A2093) was resuspended in pure medium to 10 mM, filter sterilised and added to the cells at 2 mM final. All ASOs were synthesised by Integrated DNA Technologies (IDT), and resuspended in RNase-free TE buffer, pH 8.0 (Thermo Fisher Scientific). Cell viability was assessed by adding 1× fresh resazurin solution to the wells (10λ solution made up with 7 mg resazurin [Sigma—R7017] dissolved in 3.5 ml PBS, sterile filtered at […]) for 4 h, prior to reading at with a Fluostar OPTIMA (BMG LABTECH) plate-reader (fluorescence: Excitation 535 nm, Emission 590); wells with medium only and 1× resazurin were used as blanks.
Following transfection, the cells were collected from the 6-wells and aliquoted into 96-wells, just before ASO and overnight TLR stimulation (as above described). Similarly, the LL171 cells expressing and ISRE-Luc reporter were treated overnight. The next day, the cells were lysed in 40 μl (for a 96-well plate) of 1× Glo Lysis buffer (Promega) for 10 min at room temperature. […] was then subjected to firefly luciferase assay using 40 μl of Luciferase Assay Reagent (Promega). Luminescence was quantified with a Fluostar OPTIMA (BMG LABTECH) luminometer.

[2] = biological target: T2, human TLR7 (Homo sapiens, UniProt Q9NYK1); assay: HEK-TLR7 NF-κB-luciferase reporter, R848 stimulation; assay type: cell-based; details: HEK-TLR7; for inhibition of R848 sensing by TLR7, 6 h pre-treatment (in words): 400 nM 5-nt 2′OMe oligo 6 h before R848 1 μg/ml; for inhibition of R848 sensing by TLR7, short pre-treatment (in words): 100-500 nM oligo 20-50 min before R848 1 μg/ml
T2 construct: HA; host or cells: 293XL-hTLR7-HA (HEK293)
T2 sequence (Q9NYK1 27-1049): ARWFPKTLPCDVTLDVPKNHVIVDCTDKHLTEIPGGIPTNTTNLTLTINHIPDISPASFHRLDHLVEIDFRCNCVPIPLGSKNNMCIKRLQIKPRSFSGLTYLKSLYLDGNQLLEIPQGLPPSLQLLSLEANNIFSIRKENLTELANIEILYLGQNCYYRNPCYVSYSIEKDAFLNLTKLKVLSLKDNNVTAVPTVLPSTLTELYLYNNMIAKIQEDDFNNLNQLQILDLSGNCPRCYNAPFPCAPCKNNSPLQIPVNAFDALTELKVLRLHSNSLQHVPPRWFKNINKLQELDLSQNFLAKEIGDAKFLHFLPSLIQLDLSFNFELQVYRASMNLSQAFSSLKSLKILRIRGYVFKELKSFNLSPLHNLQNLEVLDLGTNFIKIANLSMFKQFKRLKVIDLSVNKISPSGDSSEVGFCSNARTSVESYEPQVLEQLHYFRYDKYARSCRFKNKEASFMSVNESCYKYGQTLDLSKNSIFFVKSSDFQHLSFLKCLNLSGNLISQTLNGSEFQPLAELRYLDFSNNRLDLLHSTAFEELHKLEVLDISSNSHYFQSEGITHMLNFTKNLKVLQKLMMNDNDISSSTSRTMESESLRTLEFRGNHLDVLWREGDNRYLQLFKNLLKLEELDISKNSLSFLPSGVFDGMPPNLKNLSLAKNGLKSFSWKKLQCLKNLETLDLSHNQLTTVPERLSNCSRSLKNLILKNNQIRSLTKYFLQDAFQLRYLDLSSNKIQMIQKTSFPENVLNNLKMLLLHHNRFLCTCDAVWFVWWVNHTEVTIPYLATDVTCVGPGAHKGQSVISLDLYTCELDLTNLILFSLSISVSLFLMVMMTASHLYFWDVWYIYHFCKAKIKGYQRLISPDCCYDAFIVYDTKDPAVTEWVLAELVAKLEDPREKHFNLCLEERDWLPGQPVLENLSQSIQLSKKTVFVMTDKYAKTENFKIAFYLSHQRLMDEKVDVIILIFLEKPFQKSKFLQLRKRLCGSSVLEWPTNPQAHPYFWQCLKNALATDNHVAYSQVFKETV
Method: In such examples, inhibition of TLR7 activity can be identified by observation of an overall decreased TLR7 response of the cell population, or a lower proportion of cells having TLR7-positive activity as compared to positive control condition in which cells are treated with TLR7 agonist in the absence of the oligonucleotide (or in the presence of an appropriate control inhibitory agent). In one example, 293XLhTLR7 (referred to as HEK-TLR7) cells are transfected with pNF-κB-Luc4 reporter, incubated with an oligonucleotide, and then stimulated with R848. TLR7 activity can be determined by a luciferase assay, which measures activated NF-κB by luminescence. TLR7 activity can also be analysed by measuring cytokine levels, for example by ELISA. […] TLR7 activity may then be assessed by the gene or protein expression of TLR7-responsive genes, such as Tnfα and Oas3.
as §1
Following transfection, the cells were collected from the 6-wells and aliquoted into 96-wells, just before ASO and overnight TLR stimulation (as above described). Similarly, the LL171 cells expressing and ISRE-Luc reporter were treated overnight.

mU*mU*mC*mU*mG*G*G*G*A*C*T*T*C*C*A*mG*mU*mU*mU*mA (mU*mU*mC*mU*mG*dG*dG*dG*dA*dC*dT*dT*dC*dC*dA*mG*mU*mU*mU*mA; antisense) [ASO9]
inhibition of TLR9 sensing of ODN2006 (in words) [1]: significantly inhibited TLR9 sensing of ODN2006

mC*mA*mA*mC*mA*C*T*T*C*G*T*G*G*G*G*mU*mC*mC*mU*mU (CAACACTTCGTGGGGUCCUU; antisense; sugars from the 5' end m5 d10 m5, all phosphorothioate, methylation of C not given here) [[HPRT]665]
inhibition of TLR9 sensing of ODN2006 (in words) [1]: only poorly inhibitory

mA*mC*mU*mU*mC*G*T*G*G*G*G*T*C*C*T*mU*mU*mU*mC*mA (ACUUCGTGGGGTCCTUUUCA; antisense; sugars from the 5' end m5 d10 m5, all phosphorothioate, methylation of C not given here) [[HPRT]661]
inhibition of TLR9 sensing of ODN2006 (in words) [1]: significantly limited inhibition

mG*mC*mG*mG*mU*A*T*C*C*A*T*A*G*T*C*mU*mC*mC*mA*mU (mG*mC*mG*mG*mU*dA*dT*dC*dC*dA*dT*dA*dG*dT*dC*mU*mC*mC*mA*mU; antisense) [C2-ASO2-A]
inhibition of TLR9 sensing of ODN2006 (in words) [1]: significantly better inhibitors of TLR9 than their parent ASO

mG*mG*mU*mA*mU [ShortMut1]
inhibition of R848 sensing by TLR7, 6 h pre-treatment (in words) [2]: sufficient to inhibit R848 sensing | inhibition of R848 sensing by TLR7, short pre-treatment (in words) [2]: no inhibition was observed

mU*mC*mC*mG*mG*G*T*C*G*T*A*G*T*T*G*mC*mU*mU*mC*mC (UCCGGGTCGTAGTTGCUUCC; antisense; sugars from the 5' end m5 d10 m5, all phosphorothioate, methylation of C not given here) [ASO11Mut2]
inhibition of TLR9 sensing of ODN2006 (in words) [1]: conferred significant TLR9 inhibition

mC*mA*mU*mU*mA*G*G*T*G*C*A*G*A*A*A*mU*mC*mU*mU*mC (mC*mA*mU*mU*mA*dG*dG*dT*dG*dC*dA*dG*dA*dA*dA*mU*mC*mU*mU*mC) [ASO8]
inhibition of TLR9 sensing of ODN2006 (in words) [1]: significantly inhibited TLR9 sensing of ODN2006

mC*mA*mC*mU*mU*C*G*T*G*G*G*G*T*C*C*mU*mU*mU*mU*mC (CACUUCGTGGGGTCCUUUUC; antisense; sugars from the 5' end m5 d10 m5, all phosphorothioate, methylation of C not given here) [[HPRT]662]
inhibition of TLR9 sensing of ODN2006 (in words) [1]: strongest inhibition of this series of ASOs

/52MOErT/*/i2MOErG/*/i2MOErT/*/i2MOErC/*/i2MOErC/*T*T*G*C*A*C*G*T*G*C*/i2MOErC/*/i2MOErT/*/i2MOErA/*/i2MOErA/*/32MOErG/ (TGTCCTTGCACGTGCCTAAG; sugars from the 5' end e5 d10 e5, all phosphorothioate, methylation of C not given here) [F5-Mut]
inhibition of R848 sensing by TLR7, short pre-treatment (in words) [2]: significantly less inhibitory

mC*mG*mU*mU*mU [ShortMut1v3]
inhibition of R848 sensing by TLR7, 6 h pre-treatment (in words) [2]: failed to do so

mG*mG*mA*mG*mC*T*T*C*G*A*G*G*C*C*C*mC*mA*mG*mG*mC (mG*mG*mA*mG*mC*dT*dT*dC*dG*dA*dG*dG*dC*dC*dC*mC*mA*mG*mG*mC; antisense) [ASO6]
inhibition of TLR9 sensing of ODN2006 (in words) [1]: significantly inhibited TLR9 sensing of ODN2006

mG*mG*mU*mG*mG*T*C*C*A*C*A*A*C*C*C*mC*mU*mU*mU*mC (mG*mG*mU*mG*mG*dT*dC*dC*dA*dC*dA*dA*dC*dC*dC*mC*mU*mU*mU*mC; antisense) [ASO7]
inhibition of TLR9 sensing of ODN2006 (in words) [1]: significantly inhibited TLR9 sensing of ODN2006
